Source: the supplement of paper PMC10307832

Experiments:
Assay in all cases: relative viability (nuclei count vs DMSO), 5 days (fraction); higher = more cells survive
TGX 221 + Alpelisib = compound: CC1=CN2C(=O)C=C(N=C2C(=C1)C(C)NC3=CC=CC=C3)N4CCOCC4 [TGX 221] + Cc1nc(NC(=O)N2CCC[C@H]2C(N)=O)sc1-c1ccnc(C(C)(C)C(F)(F)F)c1 [Alpelisib] (partner 2 µM)
Summary of the method: (§1)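 Cells from lung cancer lines were seeded into 1536-well plates and, one day later, dosed by pin tool. Treatments were either a single drug or a fixed dose of an anchor drug with five library-drug doses (not always all listed) in √10 steps. After 5 days, nuclei were stained in a one-step fixation (final 0.05% Triton X-100, 1% formaldehyde, 1 ug/ml Hoechst) and counted on 4× images, and relative viability is the treated-to-vehicle nuclei ratio, as the median of duplicate plates.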

TGX 221 + Trametinib = compound: CC1=CN2C(=O)C=C(N=C2C(=C1)C(C)NC3=CC=CC=C3)N4CCOCC4 [TGX 221] + CC(=O)Nc1cccc(-n2c(=O)n(C3CC3)c(=O)c3c(Nc4ccc(I)cc4F)n(C)c(=O)c(C)c32)c1 [Trametinib] (partner 0.02 µM)
Summary of the method: as §1

[1] = compound: C1=CC=C(C(=C1)C2=CC=C(C=C2)C3=CSC4=C3C(=C(C(=O)N4)C#N)O)O + CC(=O)c1c(C)c2cnc(Nc3ccc(N4CCNCC4)cn3)nc2n(C2CCCC2)c1=O [Palbociclib] (partner 0.5 µM)
Summary of the method: as §1

[2] = compound: O=C(CCCCCCNC(=O)c1cnc(N(c2ccccc2)c2ccccc2)nc1)NO [Ricolinostat] + CCNC(=O)c1noc(-c2cc(C(C)C)c(O)cc2O)c1-c1ccc(CN2CCOCC2)cc1 [Luminespib] (partner 0.01 µM)
Summary of the method: as §1

Cell Line | relative viability (TGX 221 + Alpelisib; first compound 0.08 µM) | relative viability (TGX 221 + Alpelisib; first compound 0.253 µM) | relative viability (TGX 221 + Alpelisib; first compound 0.8 µM) | relative viability (TGX 221 + Alpelisib; first compound 2.53 µM) | relative viability (TGX 221 + Alpelisib; first compound 8 µM) | relative viability (TGX 221 + Trametinib; first compound 0.253 µM) | relative viability (TGX 221 + Trametinib; first compound 0.8 µM) | relative viability (TGX 221 + Trametinib; first compound 2.53 µM) | relative viability (TGX 221 + Trametinib; first compound 8 µM) | relative viability ([1]; first compound 0.08 µM) | relative viability ([1]; first compound 0.253 µM) | relative viability ([1]; first compound 0.8 µM) | relative viability ([1]; first compound 2.53 µM) | relative viability ([1]; first compound 8 µM) | relative viability ([2]; first compound 0.08 µM) | relative viability ([2]; first compound 0.253 µM) | relative viability ([2]; first compound 0.8 µM) | relative viability ([2]; first compound 2.53 µM) | relative viability (TGX 221 + Trametinib; first compound 0.08 µM)
NCI-H1944 | 0.77 | 0.713 | 0.554 | 0.488 | 0.422 | 0.367 | 0.327 | 0.401 | 0.32 | 0.329 | 0.343 | 0.352 | 0.306 | 0.289 | 0.663 | 0.686 | 0.629 | 0.57 | –
NCI-H1975 | 0.585 | 0.454 | 0.465 | 0.446 | 0.362 | 0.414 | 0.356 | 0.289 | 0.272 | 0.464 | 0.483 | 0.511 | 0.539 | 0.4 | 0.243 | 0.227 | 0.186 | 0.179 | 0.313
NCI-H1993 | 0.64 | 0.57 | 0.723 | 0.616 | 0.651 | 0.508 | 0.526 | 0.507 | 0.529 | 0.702 | 0.674 | 0.716 | 0.631 | 0.607 | – | 0.941 | 0.87 | 0.724 | 0.797
NCI-H2009 | 1.16 | 1.07 | 1.1 | 0.907 | 0.733 | 0.196 | 0.204 | 0.152 | 0.173 | 0.19 | 0.196 | 0.174 | 0.22 | 0.228 | 0.99 | 0.927 | 0.91 | 0.84 | 0.25
NCI-H2023 | 0.599 | 0.452 | 0.524 | 0.311 | 0.268 | 0.397 | 0.603 | 0.469 | 0.35 | 0.334 | 0.35 | 0.324 | 0.41 | 0.376 | 0.761 | 0.434 | 0.752 | 0.665 | 0.55
NCI-H2085 | 0.94 | 0.689 | 0.57 | 0.424 | 0.406 | 0.351 | 0.374 | 0.286 | 0.276 | 0.468 | 0.573 | 0.435 | 0.49 | 0.472 | – | 0.447 | 0.37 | 0.357 | 0.505
NCI-H2087 | 0.978 | 1.13 | 1.13 | 1.12 | 1.31 | 0.155 | 0.211 | 0.207 | 0.217 | 0.223 | 0.228 | 0.199 | 0.256 | 0.205 | – | 0.205 | 0.15 | 0.159 | 0.168
NCI-H2126 | 0.708 | 0.652 | 0.611 | 0.58 | 0.617 | 0.441 | 0.568 | 0.547 | 0.56 | 0.377 | 0.347 | 0.337 | 0.333 | 0.394 | – | 0.919 | 1.01 | 0.862 | 0.535
NCI-H2170 | 0.754 | 0.704 | 0.747 | 0.7 | 0.682 | 0.877 | 0.949 | 0.977 | 0.892 | 0.349 | 0.407 | 0.404 | 0.434 | 0.329 | 0.616 | 0.717 | 0.661 | 0.953 | 0.883
